Test results published in publication PMC4503722, “Novel Phenotypic Outcomes Identified for a Public Collection of Approved Drugs from a Publicly Accessible Panel of Assays” (PLoS ONE, 2015).
Like-named read-outs stand apart in the source and are kept apart here.

Assays:
Test in all cases: cells
Assay type in all cases: cell-based
HeLa cells = system: HeLa cells
DLD-1 = system: DLD-1
SW480 = system: SW480
HCT116 = system: HCT116
Colo320 = system: Colo320
HT-29 = system: HT-29
RKO = system: RKO
SNU-C1 = system: SNU-C1

| Compound | Basal_Viability ATP DLD-1 IC50/EC50 (DLD-1; assay number 23) [µM] | Basal_Viability ATP SW480 IC50/EC50 (SW480; assay number 24) [µM] | Basal_Viability ATP HCT116 IC50/EC50 (HCT116; assay number 25, basal) [µM] | Basal_Viability ATP Colo 320 IC50/EC50 (Colo320; assay number 27) [µM] | Basal_Viability ATP HT-29 IC50/EC50 (HT-29; assay number 28) [µM] | Basal_Viability ATP RKO IC50/EC50 (RKO; assay number 29) [µM] | Basal_Viability ATP SNU-C1 IC50/EC50 (SNU-C1; assay number 30) [µM] | Basal_Viability ATP DLD-1 IC50/EC50 (DLD-1; assay number 23, basal) [µM] | Basal_Viability ATP SW480 IC50/EC50 (SW480; assay number 24, basal) [µM] | Basal_Viability ATP Colo 320 IC50/EC50 (Colo320; assay number 27, basal) [µM] | Basal_Viability ATP HT-29 IC50/EC50 (HT-29; assay number 28, basal) [µM] | Basal_Viability ATP RKO IC50/EC50 (RKO; assay number 29, basal) [µM] | Basal_Viability ATP SNU-C1 IC50/EC50 (SNU-C1; assay number 30, basal) [µM] | also measured |
| --- | --- | --- | --- | --- | --- | --- | --- | --- | --- | --- | --- | --- | --- | --- |
| Fc1ccc(C(OCCN2CCN(CCCc3ccccc3)CC2)c2ccc(F)cc2)cc1 [NCGC00015300-10] | – | – | – | – | – | – | – | – | – | – | – | – | – | IC50/EC50, Hela CellCycMod PI 2N (assay number 14) (HeLa cells; 2N): > 10 µM; IC50/EC50, Hela CellCycMod PI 4N (assay number 16) (HeLa cells; 4N): > 10 µM; IC50/EC50, Hela CellCycMod PI Cell Number (assay number 18) (HeLa cells; Cell Number): 3.2 µM; IC50/EC50, Hela CellCycMod PI MI (assay number 17) (HeLa cells; MI): > 10 µM; IC50/EC50, Hela CellCycMod PI S Phase (assay number 15) (HeLa cells; S Phase): > 10 µM; IC50/EC50, Basal_Viability ATP DLD-1 (assay number 23) (DLD-1; basal): 0.9032 µM; IC50/EC50, Basal_Viability ATP SW480 (assay number 24) (SW480; basal): 2.068 µM; IC50/EC50, Basal_Viability ATP HCT116 (assay number 25) (HCT116; basal): 4.8718 µM; IC50/EC50, Basal_Viability ATP Colo 320 (assay number 27) (Colo320; basal): > 20 µM; IC50/EC50, Basal_Viability ATP HT-29 (assay number 28) (HT-29; basal): 1.4851 µM; IC50/EC50, Basal_Viability ATP RKO (assay number 29) (RKO; basal): 0.113 µM; IC50/EC50, Basal_Viability ATP SNU-C1 (assay number 30) (SNU-C1; basal): 1.817 µM |
| CS(=O)(=O)O.Cc1ccc2c(c1)c1c3n2CCNC3CCC1 (centres unmarked) [NCGC00024749-04] | > 20 | > 20 | > 20 | > 20 | > 20 | > 20 | 2.4763 | – | – | – | – | – | – | Hela CellCycMod PI 2N IC50/EC50 (HeLa cells; assay number 14, 2N): > 10 µM; Hela CellCycMod PI S Phase IC50/EC50 (HeLa cells; assay number 15, S phase): > 10 µM; Hela CellCycMod PI 4N IC50/EC50 (HeLa cells; assay number 16, 4N): > 10 µM; Hela CellCycMod PI MI IC50/EC50 (HeLa cells; assay number 17, MI): > 10 µM; Hela CellCycMod PI Cell Number IC50/EC50 (HeLa cells; assay number 18, cell number): > 10 µM |
| Cc1onc(-c2ccccc2)c1-c1ccc(S(N)(=O)=O)cc1 [NCGC00095129-06] | – | – | – | – | – | – | – | – | – | – | – | – | – | Basal_Viability ATP DLD-1 IC50/EC50 (DLD-1): > 20 µM; Basal_Viability ATP SW480 IC50/EC50 (SW480): > 20 µM; Basal_Viability ATP HCT116 IC50/EC50 (HCT116): > 20 µM; Basal_Viability ATP Colo 320 IC50/EC50 (Colo320): > 20 µM; Basal_Viability ATP HT-29 IC50/EC50 (HT-29): > 20 µM; Basal_Viability ATP RKO IC50/EC50 (RKO): > 20 µM; Basal_Viability ATP SNU-C1 IC50/EC50 (SNU-C1): > 20 µM |
| CNS(=O)(=O)Cc1ccc2[nH]cc(CCN(C)C)c2c1 [NCGC00095838-04] | – | – | > 20 | – | – | – | – | > 20 | > 6.6667 | > 20 | > 20 | > 20 | > 20 | – |
| CCN(CCO)CCCC(C)Nc1ccnc2cc(Cl)ccc12.O=S(=O)(O)O (centres unmarked) [NCGC00159483-04] | – | – | > 20 | – | – | – | – | > 20 | > 20 | > 20 | > 20 | > 20 | > 20 | – |
| CC=CC1=C(C(=O)O)N2C(=O)[C@@H](NC(=O)[C@H](N)c3ccc(O)cc3)[C@H]2SC1 [NCGC00159513-03] | > 20 | > 20 | > 20 | > 20 | > 20 | > 20 | > 20 | – | – | – | – | – | – | – |
| OC[C@@H](O)[C@H](O)[C@H](O)[C@@H](O)CO [NCGC00166072-02] | – | – | > 20 | – | – | – | – | > 20 | > 20 | > 20 | > 20 | > 20 | > 20 | – |
| O.O=C1[O][Bi][O]c2ccccc21 [NCGC00166299-03] | – | – | > 20 | – | – | – | – | > 20 | > 20 | > 20 | > 20 | > 20 | 15.3838 | – |
| CC(C)(C)CC(C)(C)c1cc(Cc2cc(C(C)(C)CC(C)(C)C)cc(-n3nc4ccccc4n3)c2O)c(O)c(-n2nc3ccccc3n2)c1 [NCGC00167544-02] | – | – | > 20 | – | – | – | – | > 20 | > 20 | > 20 | > 20 | > 20 | > 20 | – |
| CC(C)=CC1C(C(=O)OCN2C(=O)C3=C(CCCC3)C2=O)C1(C)C (centres unmarked) [NCGC00168352-02] | – | – | – | – | – | – | – | – | – | – | – | – | – | IC50/EC50, Basal_Viability ATP DLD-1 (assay number 23) (DLD-1; basal): > 20 µM; IC50/EC50, Basal_Viability ATP SW480 (assay number 24) (SW480; basal): > 20 µM; IC50/EC50, Basal_Viability ATP HCT116 (assay number 25) (HCT116; basal): > 20 µM; IC50/EC50, Basal_Viability ATP Colo 320 (assay number 27) (Colo320; basal): > 20 µM; IC50/EC50, Basal_Viability ATP HT-29 (assay number 28) (HT-29; basal): > 20 µM; IC50/EC50, Basal_Viability ATP RKO (assay number 29) (RKO; basal): > 20 µM; IC50/EC50, Basal_Viability ATP SNU-C1 (assay number 30) (SNU-C1; basal): > 20 µM |
| Cc1cccc(Cc2cnc[nH]2)c1C.Cl [NCGC00182057-03] | – | – | – | – | – | – | – | – | – | – | – | – | – | IC50/EC50, Basal_Viability ATP DLD-1 (assay number 23) (DLD-1; basal): > 20 µM; IC50/EC50, Basal_Viability ATP SW480 (assay number 24) (SW480; basal): > 20 µM; IC50/EC50, Basal_Viability ATP HCT116 (assay number 25) (HCT116; basal): > 20 µM; IC50/EC50, Basal_Viability ATP Colo 320 (assay number 27) (Colo320; basal): > 20 µM; IC50/EC50, Basal_Viability ATP HT-29 (assay number 28) (HT-29; basal): > 20 µM; IC50/EC50, Basal_Viability ATP RKO (assay number 29) (RKO; basal): > 20 µM; IC50/EC50, Basal_Viability ATP SNU-C1 (assay number 30) (SNU-C1; basal): > 20 µM |
| CCOC(=O)Oc1ccc(CCNC(=O)[C@H](CCSC)NC(C)=O)cc1OC(=O)OCC [NCGC00249931-01] | > 20 | > 20 | > 20 | > 20 | > 20 | > 20 | > 20 | – | – | – | – | – | – | – |
| O=c1c(C2CC(c3ccc(-c4ccc(Br)cc4)cc3)Cc3ccccc32)c(O)sc2ccccc12 (centres unmarked) [NCGC00262959-01] | 0.239 | 0.187 | 0.4855 | 0.7354 | 0.4364 | 0.5378 | 0.2516 | – | – | – | – | – | – | – |
